Assay results published in article PMC12610721, “The Action of Cannabidiol on Doxycycline Cytotoxicity in Human Cells—In Vitro Study” (Molecules, 2025).
Where two headings read alike, the source gives them in different places.

Assays:
[1] = system: SH-SY5Y cells; test: proliferation, total cellular protein (TPC assay); details: 72 h
Experimental: (§1) This innovative study evaluated the effects of cannabidiol (Cannabis sativa L.) on doxycycline-induced toxicity using three cell cultures: neural—SH-SY5Y, liver—HepG2, and kidney—HEK-293. […] A series of cytotoxicity assays included assessments of mitochondrial activity, lysosomal activity, cell membrane integrity, DNA synthesis, and cell proliferation. Based on the obtained results, IC50 values for doxycycline, both in monotherapy and in combination with CBD, were calculated, along with evaluations of ROS, death of cells, and morphology. The interaction between the drug and CBD was further analyzed by the combination index (CI).
(§2) This assay is based on staining total cellular proteins as a measure of proliferation. After incubation, the medium containing the test compounds was removed, and 100 µL of Coomassie Brilliant Blue R-250 dye was added to each well. The plate was shaken for 10 min. The dye was then removed, and the cells were rinsed twice with 100 µL of washing solution (glacial acetic acid/ethanol/water, 5:10:85, v/v/v). Next, 100 µL of desorbing solution (1 M potassium acetate) was added, and the plate was shaken again for 10 min. Absorbance was measured at 595 nm using the Synergy 2 Multi-Mode Microplate Reader (BioTek® Instruments Inc., Winooski, VT, USA), with a blank as reference. Cytotoxicity was expressed as a percentage relative to the negative control.
(§3) To determine the types of interaction that occur when cells are exposed to combinations of DOX and CBD, the method established by Chou and Talalay was used in this study. The dose–effect relationships of the individual and combined test compounds were modeled biometrically using the Median-Effect Equation based on the Mass Action Law.fa/fu = (D/Dm)^m
(§4) In this isobolographic analysis, the combination index (CI) is a quantitative parameter used to evaluate the type and strength of interactions between multiple compounds. For all combinations, CI values were calculated across a range of affected fractions (Fa) from 0.05 to 0.95 (corresponding to 5–95% toxicity). CI values of 0.9–1.1, <0.9, and >1.1 indicate additive, synergistic, and antagonistic effects, respectively.
(§5) The study was conducted in three independent experiments (n = 3). […] Cytotoxicity data were analyzed using one-way analysis of variance (ANOVA), followed by Dunnett’s post hoc test to assess significance relative to the negative control. The half-maximal inhibitory concentration (IC50), representing the drug or drug–CBD mixture concentration required to inhibit cell viability by 50%, was calculated using GraphPad Prism 5.0. Statistical comparisons between IC50 values were performed using ANOVA followed by Tukey’s post hoc test. Differences were considered statistically significant at p ≤ 0.05.

[2] = system: HepG2 cells; test: proliferation, total cellular protein (TPC assay)
Experimental: as §1, §2, §3, §4, §5

[3] = system: HEK-293 cells; test: proliferation, total cellular protein (TPC assay)
Experimental: as §1, §2, §3, §4, §5

[4] = system: SH-SY5Y cells; test: lysosomal activity (NRU assay); details: 72 h
Experimental: as §1
(§6) This method is based on staining viable cells with neutral red, a dye that readily diffuses through the plasma membrane and accumulates in lysosomes. After incubation with the test compounds, the medium containing the substances was removed, and the cells were washed with PBS. Subsequently, 100 µL/well of neutral red (NR) solution (50 µg/mL) was added and incubated for 3 h. After incubation, the cells were washed again with PBS. The dye retained in viable cells was extracted using a solution of acetic acid, ethanol, and water (1:50:49, v/v/v). After 10 min of shaking, the absorbance of the extracted dye was measured at 540 nm using a Synergy 2 Multi-Mode Microplate Reader (BioTek® Instruments Inc., Winooski, VT, USA), with a blank as reference. Cytotoxicity was expressed as a percentage relative to the negative control.
as §3, §4, §5

[5] = system: HepG2 cells; test: lysosomal activity (NRU assay)
Experimental: as §1, §6, §3, §4, §5

[6] = system: HEK-293 cells; test: lysosomal activity (NRU assay)
Experimental: as §1, §6, §3, §4, §5

[7] = system: SH-SY5Y cells; test: cellular morphology (May–Grünwald–Giemsa staining); format: cell-based, human; details: 72 h
Experimental: (§7) This method was used to illustrate changes in cell morphology under the influence of the tested compounds. The staining was performed on Lab-Tek plates (Nunc, NY, USA). Cells at a density of 1 × 10^5 cells/mL were used. After 72 h of incubation with or without the tested drugs (control), the culture medium was removed, and the cells were stained with 1 mL of May–Grünwald dye for 3 min at room temperature. Then, 1 mL of deionized water was added to each plate. After another 3 min of incubation at room temperature, the liquid was removed. All plates were rinsed with deionized water, and the cells were subsequently stained with Giemsa dye (dilution 1:20) for 30 min at room temperature. After staining, the dye was removed, the wells were rinsed with 1 mL of deionized water, and the plates were allowed to dry. Images were captured using a light microscope (Zeiss, Oberkochen, Germany).

[8] = system: HepG2 cells; test: cellular morphology (May–Grünwald–Giemsa staining); format: cell-based, human; details: HepG2, 72 h
Experimental: as §7

[9] = system: HEK-293 cells; test: cellular morphology (May–Grünwald–Giemsa staining); format: cell-based, human; details: HEK-293, 72 h
Experimental: as §7

[10] = system: HepG2 cells; details: 72 h exposure, cited from earlier work
[11] = system: SH-SY5Y cells; test: cell membrane integrity (LDH leakage assay); details: 72 h
Experimental: as §1
(§8) Cell membrane integrity was assessed by measuring lactate dehydrogenase (LDH) release, using a commercially available Cytotoxicity Detection Kit (LDH) (Roche Diagnostics, Warsaw, Poland). After incubation, 100 µL of culture medium (cell-free) from each well was transferred to the corresponding wells of an optically clear 96-well flat-bottom microplate, and 100 µL of reaction mixture was added to each well. The plate was then incubated for 30 min at room temperature in the dark. To stop the reaction, 50 µL of 1 M HCl was added to each well. Absorbance was measured at 492 nm using the Synergy 2 Multi-Mode Microplate Reader (BioTek® Instruments Inc., Winooski, VT, USA), with a blank as reference.
as §3, §4, §5

[12] = system: HepG2 cells; test: cell membrane integrity (LDH leakage assay)
Experimental: as §1, §8, §3, §4, §5

[13] = system: HEK-293 cells; test: cell membrane integrity (LDH leakage assay)
Experimental: as §1, §8, §3, §4, §5

[14] = system: rat neuronal cell line PC12; design: method as in PMID 33798505; details: PC12, 24 h, 20 µM (10.26 µg/mL); cited from earlier work

C[C@H]1c2cccc(O)c2C(=O)C2=C(O)[C@]3(O)C(=O)C(C(N)=O)=C(O)[C@@H](N(C)C)[C@@H]3[C@@H](O)[C@@H]21 [DOX, doxycycline hyclate]
IC50 ([1]; Homo sapiens): > 200 µg/mL | doxycycline concentration at which cell proliferation decreased ([1]; TPC): 50 µg/mL | doxycycline concentration that reduced cell proliferation ([2]; HepG2, TPC, 72 h): 50 µg/mL | IC50 ([2]; Homo sapiens, HepG2, 72 h): > 200 µg/mL | doxycycline concentration that inhibited cell proliferation ([3]; HEK-293, TPC, 72 h): 12.5 µg/mL | IC50 ([3]; Homo sapiens, HEK293, 72 h): 14.8 ± 1.3 µg/mL | IC50 ([4]; Homo sapiens): > 200 µg/mL | doxycycline concentration at which lysosomal activity was inhibited ([4]; NRU): 50 µg/mL | doxycycline concentration that inhibited lysosomal activity ([5]; HepG2, NRU, 72 h): 25 µg/mL | IC50 ([5]; Homo sapiens, HepG2, 72 h): 13.4 ± 0.9 µg/mL | doxycycline concentration that inhibited lysosomal activity ([6]; HEK-293, NRU, 72 h): 6.25 µg/mL | IC50 ([6]; Homo sapiens, HEK293, 72 h): 12.7 ± 1 µg/mL | morphological changes [7]: cell aggregation followed by detachment from the adhesive surface | morphological changes [8]: cell aggregation followed by detachment from the adhesive surface | morphological changes [9]: cell aggregation followed by detachment from the adhesive surface | IC50 of mitochondrial inhibition ([10]; converted value in brackets): 10.3 µg/mL | IC50 ([10]; read-out: IC50 of mitochondrial inhibition): 20 µM | IC50 ([11]; Homo sapiens): 149 ± 6.5 µg/mL | doxycycline concentration that induced cell membrane breakdown ([11]; LDH): 12.5 µg/mL | doxycycline concentration that disrupted membrane integrity ([12]; HepG2, LDH, 72 h): 50 µg/mL | IC50 ([12]; Homo sapiens, HepG2, 72 h): > 200 µg/mL | doxycycline concentration that caused degradation of the cell membrane ([13]; HEK-293, LDH, 72 h): 6.25 µg/mL | IC50 ([13]; Homo sapiens, HEK293, 72 h): 30.4 ± 2.7 µg/mL | neurotoxicity [14]: no signs of neurotoxicity
